The structures appear in SMILES notation.

The values below come from US20140037715A1, “DISULFIRAM FORMULATION AND USES THEREOF” (UNIVERSITY OF WOLVERHAMPTON, priority 2010, published 2014).

One series can be described thus: Stability in plasma. The class given is in vitro ADME. Conditions: after 25 hours.
For series [1] the following is noted: cited from earlier work.
In another series the test system is S180 sarcoma. Nature of the series: S180 sarcoma growth in mice. As to conditions: S180 sarcoma bearing mice; DS 30 mg/kg oral, CuCl2 3 mg/kg oral. The class given is in vivo.
In the next series the test system is breast cancer cell lines. Put plainly: MTT cytotoxicity assay in breast cancer cell lines. Conditions: CuCl2 (10 μM) containing medium, 72 hours. (Tetrazolium dyes change colour on reduction, which living cells bring about.)
The nature of a further series: Stability in whole blood. The class given is in vitro ADME. As to conditions: after 5 hours.
The next series relates to MDA-MB-231. Put plainly: MTT cytotoxicity assay, single drugs and combinations with Lipo-DS/Cu. The class given is cell-based. Conditions: Homo sapiens, MDA-MB-231, 72 h.
The next series concerns MCF7. The description is as above. The class given is cell-based. As to conditions: Homo sapiens, MCF7, 72 h.
The next series concerns T47D. The series is described as above. The class given is cell-based. Conditions: Homo sapiens, 72 h.

Method for MCF7: (§1) All cell lines were cultured in DMEM (Lonza, Wokingham, UK) supplemented with 10% FCS, 50 units/ml penicillin, 50 μg/ml streptomycin. For in vitro cytotoxicity assay, cells [5,000/well (10,000/well for MDA-MB-231PAC10)] were cultured overnight in 96-well flat-bottomed microtiter plates then exposed to drugs for 72 h and subjected to a standard MTT assay (Plumb J A, et al Cancer Res 1989; 49(16):4435-40).
(§2) The cells were then subjected to MTT analysis as described above. […] The combination index (CI) was determined by mutually exclusive equations.
Method for MDA-MB-231: as §1, §2
Method for S180 sarcoma: An S180 mouse sarcoma (FIGS. 6A-6C) and MDA-MB-231 breast cancer cells (1×10^6) (FIG. 6D-6F) were subcutaneously injected into the rare frank of BALB/c and CD1 Nu/Nu mice respectively (S180: n=5; MDA-MB-231: n=6).
Five-week-old female athymic CD1 nude mice used in this study were housed under pathogen-free conditions. Human MDA-MB-231 breast cancer or mouse S180 sarcoma cells (1×10^6) were injected s.c. at one flank of the mice. Tumour volume (V) was determined by the equation: V=(L×W^2)×0.5, where L is the length and W is the width of the tumour. When xenografts reached volumes of ˜200 mm^3, the mice showing tumours were randomly grouped for the following treatments. The first day of drug treatment was designated as day 1.
Five groups (5 mice/group) were set up for mice with S180 sarcoma: 1. control, No treatment; 2. […] DS, non-encapsulated DS 30 mg/kg dissolved in vegetable oil, oral administration; 5. DS/Cu: DS 30 mg/kg oral and CuCl2 3 mg/kg oral.
The animals were subjected to different treatments when their tumours reached 2 mm in diameter. The drugs were administrated on Monday, Wednesday and Friday for two successive weeks. […] For the combination treatment groups, CuCl2 were administered in the morning.
Method for T47D: as §1, §2
Method for breast cancer cell lines: After 72 hours, the viability of the treated cells was determined by MTT assay.
The viability was determined by MTT assay.
as §1
The cells were then subjected to MTT analysis as described above.

With `CCN(CC)C(=S)SSC(=S)N(CC)CC` [DS, disulfiram], the remaining in plasma entry in “Stability in plasma” was “about 15%”. In addition, the blood concentration entry in series [1] (after oral administration of a 500 mg dose) was “below the limit of detection”. In addition, the “half-life in the blood stream” value in series [1] (degraded by glutathione reductase system in erythrocytes) is 4 min. In the series on S180 sarcoma, the “in vivo anticancer effect” value was “not detected”. Besides, the “cytotoxicity to BC cell lines” value with breast cancer cell lines was “comparable cytotoxicity”. The “remaining in whole blood” value in the series “Stability in whole blood” is listed as “about 10%”.

Take `COc1cccc2c1C(=O)c1c(O)c3c(c(O)c1C2=O)C[C@@](O)(C(=O)CO)C[C@@H]3O[C@H]1C[C@H](N)[C@H](O)[C@H](C)O1` [Dox alone, doxorubicin]: the IC50 with MDA-MB-231 stood at 178 nM; in the series with MCF7, 440 nM; in the series on T47D it was 160 nM.

Take `Nc1ccn([C@@H]2O[C@H](CO)[C@@H](O)C2(F)F)c(=O)n1` [GEM alone, gemcitabine]: the IC50 with MDA-MB-231 amounted to 12.3 nM; in the series with MCF7 it was 22.1 nM; with T47D, 35 nM.

Regarding `CC(=O)O[C@H]1C(=O)[C@@]2(C)[C@H]([C@H](OC(=O)c3ccccc3)[C@]3(O)C[C@H](OC(=O)[C@H](O)[C@@H](NC(=O)c4ccccc4)c4ccccc4)C(C)=C1C3(C)C)[C@]1(OC(C)=O)CO[C@@H]1C[C@@H]2O` [Pac alone, paclitaxel], the half-maximal inhibitory concentration (IC50) in the series with MDA-MB-231 came out at 9.3 nM; with MCF7 it was 4.3 nM; in the series with T47D, 2.6 nM.

As a reminder, the IC50 is the midpoint of a concentration-inhibition curve.
